Laboratory results from PMC11042245, “Discovery of novel SOS1 inhibitors using machine learning” (RSC Medicinal Chemistry, 2024).
Where two headings read alike, the source gives them in different places. Values belong to the compound of their own block, whether it stands above or below them.

Key:
[1] = target: T1, KRAS G12C/SOS1 (Homo sapiens, UniProt Q07889); experiment: KRAS G12C/SOS1 PPI homogeneous time-resolved fluorescence (HTRF) assay; type: binding; conditions: for inhibition at 0.5 µg/mL / inhibition at 10 µg/mL / inhibition at 40 µg/mL / inhibition at 50 µg/mL: read-out: Inhibition rate (%); for inhibition at 25 µg/mL: read-out: Inhibition rate at 25 μg mL^−1 (%)
T1 construct: purchased Cytoskeleton (SOS1); AntibodySystem (KRAS G12C)
T1 sequence (Q07889 564-1049 limits assumed): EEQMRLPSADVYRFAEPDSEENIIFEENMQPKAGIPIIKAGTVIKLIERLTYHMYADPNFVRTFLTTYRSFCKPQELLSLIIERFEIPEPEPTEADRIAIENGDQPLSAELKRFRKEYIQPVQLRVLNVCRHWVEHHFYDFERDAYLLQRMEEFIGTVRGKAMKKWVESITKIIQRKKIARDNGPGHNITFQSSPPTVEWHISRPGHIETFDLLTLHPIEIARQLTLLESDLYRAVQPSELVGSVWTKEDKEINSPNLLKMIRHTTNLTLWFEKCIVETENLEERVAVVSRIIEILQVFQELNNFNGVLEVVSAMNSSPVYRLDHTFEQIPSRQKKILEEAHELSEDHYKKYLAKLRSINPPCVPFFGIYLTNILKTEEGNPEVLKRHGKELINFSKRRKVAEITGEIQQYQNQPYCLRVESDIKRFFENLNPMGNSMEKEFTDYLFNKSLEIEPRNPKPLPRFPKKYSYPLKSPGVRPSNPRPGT
Procedure: All the test compounds were provided by the CNCL (https://www.cncl.org.cn/). […] The percentage inhibition was calculated by comparison with the buffer control group. The IC50 value was calculated by GraphPad Prism software in inhibitor versus normalized response (variable slope) mode.

[2] = system: SOS1; conditions: cited from earlier work; for IC50: read-out: Actual IC50
[3] = converted from μg mL^−1, read-out: IC50 calculated using the molecular weight of each compound
[4] = dose-response 0.5–50 μg mL^−1, read-out: IC50 (μg mL^−1)
[5] = 10% reserved data (Table S3), ref ChEMBL database (version 31)

IC50 [1, 3]: 53.7 µM
IC50 [1, 4]: 53.7 µM
inhibition at 0.5 µg/mL [1]: 0.8 ± 1.1%
inhibition at 10 µg/mL [1]: 31.9 ± 2.8%
inhibition at 40 µg/mL [1]: 66.6 ± 0.1%
inhibition at 50 µg/mL [1]: 72.3 ± 2.7%
inhibition at 25 µg/mL [1]: 53.8 ± 1.6%
SMILES: CC(C)c1ccc(S(=O)(=O)Nc2cnc(N3CCCC3)c(C(=O)O)c2)cc1 [CL01545365]

SMILES: Cc1nc(N[C@H](C)c2cc(N)cc(C(F)(F)F)c2)c2cc(C3CCC(C(=O)N4CCOCC4)CC3)ccc2n1 (some centres unmarked) [CHEMBL4540213]
Actual pChEMBL [2, 5]: 8.70

SMILES: COCCN(C)C(=O)C1CCC(c2cc3c(N[C@H](C)c4cc(N)cc(C(F)(F)F)c4)nc(C)nc3cc2OC)CC1 (some centres unmarked) [CHEMBL4513254]
Actual pChEMBL [2, 5]: 8.52

SMILES: COc1cc2nc(C)nc(N[C@H](C)c3cccc(C)c3)c2cc1-c1ccc(=O)[nH]c1 [CHEMBL4455684]
Actual pChEMBL [2, 5]: 7.55

SMILES: Cc1cccc([C@@H](C)Nc2nc(C)nc3cc(C)c(-c4ccc(=O)n(C)c4)cc23)c1 [CHEMBL4473214]
Actual pChEMBL [2, 5]: 7.44

SMILES: CC(=O)N1CCC(O)(c2ccc3nc(C)nc(N[C@H](C)c4cccc(C)c4)c3c2)CC1 [CHEMBL4524954]
Actual pChEMBL [2, 5]: 7.85

IC50 [1, 3]: 94.6 µM
IC50 [1, 4]: 94.6 µM
inhibition at 0.5 µg/mL [1]: -1.6 ± 0.2%
inhibition at 10 µg/mL [1]: 17.9 ± 3.3%
inhibition at 40 µg/mL [1]: 53.3 ± 0.5%
inhibition at 50 µg/mL [1]: 61.6 ± 4%
inhibition at 25 µg/mL [1]: 38 ± 3.3%
SMILES: Cc1ccc(S(=O)(=O)Nc2cnc(N3CCCC3)c(C(=O)O)c2)c(C)c1 [CL01545355]

SMILES: COc1cc2nc(C)nc(N[C@H](C)c3cc(N)cc(C(F)(F)F)c3)c2cc1O[C@H]1CCN(C(C)=O)C1 [CHEMBL4435672]
Actual pChEMBL [2, 5]: 8.52

SMILES: Cc1nc(N[C@H](C)c2cccc(C(F)F)c2F)c2cc3c(cc2n1)OC[C@H]1CN(C(=O)C2(C#N)CC2)CCN31 [compound 37]
Actual pChEMBL value ([2]; external validation data): 8.33

SMILES: Cc1nc(N[C@H](C)c2cc(N)cc(C(F)(F)F)c2C)c2cc(C3CCS(=O)(=O)CC3)ccc2n1 [CHEMBL4441820]
Actual pChEMBL [2, 5]: 8.40

SMILES: COc1cc2nc(C)nc(N[C@H](C)c3cccc(C(F)(F)F)c3)c2cc1OC [CHEMBL5084571]
Actual pChEMBL ([2]; Table 3): 6.97
IC50 ([2]; Table 3): 0.106 µM

IC50 [1, 3]: 66.3 µM
IC50 [1, 4]: 66.3 µM
inhibition at 0.5 µg/mL [1]: 3.4 ± 1.8%
inhibition at 10 µg/mL [1]: 24.2 ± 1.4%
inhibition at 40 µg/mL [1]: 55.3 ± 3.2%
inhibition at 50 µg/mL [1]: 60.5 ± 4%
inhibition at 25 µg/mL [1]: 42.9 ± 3.4%
SMILES: Cc1ccccc1C1=CCN(c2ncc(NS(=O)(=O)c3ccc(C(C)C)cc3)cc2C(=O)O)CC1 [CL01545464]

SMILES: COc1cc2nc(C)nc(N[C@H](C)c3cccc(C(F)(F)F)c3)c2cc1-c1ccc(C(=O)N(C)CCO)cc1 [CHEMBL4453639]
Actual pChEMBL [2, 5]: 7.40

SMILES: CCOc1cc2c(N[C@H](C)c3ccccc3)nc(C)nc2cn1 [CHEMBL4545109]
Actual pChEMBL ([2]; Table 3): 5.69
IC50 ([2]; Table 3): 2.06 µM

SMILES: COc1cc2nc(C)nc(N[C@H](C)c3cccc(C(F)(F)F)c3F)c2cc1C1(O)CCC(C(=O)N(C)C)CC1 (some centres unmarked) [CHEMBL4459389]
Actual pChEMBL [2, 5]: 8.30

SMILES: Cc1nc(N[C@H](C)c2cccc(C(F)(F)F)c2)c2cc([C@]3(O)CC[C@H](C(=O)N(C)C)CC3)ccc2n1 [CHEMBL4533487]
Actual pChEMBL [2, 5]: 7.57

SMILES: COCC(=O)N1CCC(c2cc3c(N[C@H](C)c4cccc(C)c4)nc(C)nc3cc2C)CC1 [CHEMBL4448274]
Actual pChEMBL [2, 5]: 7.47

SMILES: CCn1ccc(-c2cc3c(N[C@H](C)c4cc(N)cc(C(F)(F)F)c4)nc(C)nc3cc2C)cc1=O [CHEMBL4551748]
Actual pChEMBL [2, 5]: 8.30

SMILES: Cc1cccc([C@@H](C)Nc2nc(C)nc3ccc(C4CC[S+]([O-])CC4)cc23)c1 (some centres unmarked) [CHEMBL4561965]
Actual pChEMBL [2, 5]: 7.66

SMILES: Cc1cccc([C@@H](C)Nc2nc(C)nc3ccc([C@H]4CC[C@H](C(=O)N5CC(C#N)C5)CC4)cc23)c1 [CHEMBL4463184]
Actual pChEMBL [2, 5]: 7.44

SMILES: Cc1nc(N[C@H](C)c2cccc(C(F)(F)F)c2)c2cc(-c3cc4n(n3)CCC(=O)N4)ccc2n1 [CHEMBL4570224]
Actual pChEMBL [2, 5]: 7.52

SMILES: Cc1nc(N[C@H](C)c2cc(N)cc(C(F)(F)F)c2)c2cc(C3CCN(C(=O)CN(C)C)CC3)ccc2n1 [CHEMBL4539190]
Actual pChEMBL [2, 5]: 8.52

SMILES: COc1cc2nc(C)nc(N[C@H](C)c3cccc(C(F)(F)F)c3)c2cc1-c1ccc(C(=O)N(C)C)cn1 [CHEMBL4515122]
Actual pChEMBL [2, 5]: 7.46

SMILES: COc1cc2nc(C)nc(N[C@H](C)c3cc(N)cc(C(F)(F)F)c3)c2cc1C1CCC(C(=O)N2CCOCC2)CC1 (some centres unmarked) [CHEMBL4451252]
Actual pChEMBL [2, 5]: 7.60

inhibition at 25 µg/mL [1]: 25.3 ± 0.3%
SMILES: CCOCCCN(C)C1CCN(c2ncc(NC(=O)c3ccc(C)cc3)cc2C(=O)O)CC1 [CL00838284]

SMILES: Cc1cccc([C@@H](C)Nc2nc(C)nc3ccc(C4CCS(=O)(=O)CC4)cc23)c1 [CHEMBL4443395]
Actual pChEMBL [2, 5]: 7.54

SMILES: COc1cc2nc(C)nc(N[C@H](C)c3ccccc3)c2cc1OC [CHEMBL5087955]
Actual pChEMBL ([2]; Table 3): 6.34
IC50 ([2]; Table 3): 0.453 µM

SMILES: CCOc1cc2c(N[C@H](C)c3ccc(F)cc3)nc(C)nc2cn1 [CHEMBL4456281]
Actual pChEMBL ([2]; Table 3): 5.03
IC50 ([2]; Table 3): 9.3 µM

SMILES: Cc1nc(N[C@H](C)c2cc(N)cc(C(F)(F)F)c2)c2cc([C@H]3CC[C@H](C(=O)N(C)C)CC3)c(C)cc2n1 [CHEMBL4554249]
Actual pChEMBL [2, 5]: 8.70

inhibition at 25 µg/mL [1]: -6.5 ± 2.5%
SMILES: CC(C)c1cccc2cc3c(nc12)OCCN(CCc1ccc2c(c1)OCO2)C3 [CL01132463]

SMILES: Cc1nc(N[C@H](C)c2cc(N)cc(C(F)(F)F)c2)c2cc(-c3cnn(CC(=O)N(C)C)c3)ccc2n1 [CHEMBL4546387]
Actual pChEMBL [2, 5]: 8.10

SMILES: COc1cc2nc(C)nc(N[C@H](C)c3cccc(S(N)(=O)=O)c3)c2cc1OC [CHEMBL5085531]
Actual pChEMBL ([2]; Table 3): 7.25
IC50 ([2]; Table 3): 0.056 µM

SMILES: CC(=O)N[C@@H]1CCN(c2cc3c(NC(C)c4ccc(-c5ccccc5CN(C)C)s4)nc(C)nc3cn2)C1 (some centres unmarked) [CHEMBL4463000]
Actual pChEMBL ([2]; Table 3): 7.82
IC50 ([2]; Table 3): 0.015 µM

SMILES: COCC(=O)N1CCC(c2ccc3nc(C)nc(N[C@H](C)c4cc(N)cc(C(F)(F)F)c4)c3c2)CC1 [CHEMBL4469357]
Actual pChEMBL [2, 5]: 8.70

inhibition at 25 µg/mL [1]: 2 ± 0.8%
SMILES: CCC(C)NC(=O)c1ccc(Cn2c(=O)c3cc(OC)c(OC)cc3n(Cc3ccccc3F)c2=O)cc1 (centres unmarked) [CL00817024]

IC50 [1, 3]: 103 µM
IC50 [1, 4]: 103 µM
inhibition at 0.5 µg/mL [1]: 1.5 ± 1.1%
inhibition at 10 µg/mL [1]: 14.5 ± 3.3%
inhibition at 40 µg/mL [1]: 45.5%
inhibition at 50 µg/mL [1]: 49.9 ± 0.5%
inhibition at 25 µg/mL [1]: 31.1 ± 1.4%
SMILES: Cc1ccc(S(=O)(=O)Nc2cnc(N3CC=C(c4ccccc4C)CC3)c(C(=O)O)c2)c(C)c1 [CL01545444]

SMILES: COc1cc2nc(C)nc(N[C@H](C)c3cc(N)cc(C(F)(F)F)c3F)c2cc1C1CCC(C(=O)N(C)C)CC1 (some centres unmarked) [CHEMBL4572922]
Actual pChEMBL [2, 5]: 7.46

SMILES: COc1cc2nc(C)nc(N[C@H](C)c3cccc(C(F)(F)CO)c3)c2cc1C1=CCC(C(=O)N(C)C)CC1 (some centres unmarked) [CHEMBL4529467]
Actual pChEMBL [2, 5]: 8.70

SMILES: COc1cc2nc(C)nc(N[C@H](C)c3cc(N)cc(C(F)(F)F)c3F)c2cc1O[C@H]1CCOC1 [CHEMBL4572076]
Actual pChEMBL [2, 5]: 8.30

SMILES: CONC(=O)CC(C)c1cc2c(N[C@H](C)c3cccc(C(F)(F)F)c3)nc(C)nc2cc1C (some centres unmarked) [CHEMBL4464090]
Actual pChEMBL [2, 5]: 8.10

SMILES: Cc1cccc([C@@H](C)Nc2nc(C)nc3ccc(C4CCOCC4)cc23)c1 [CHEMBL4583745]
Actual pChEMBL [2, 5]: 7.37
